The source of these data is patent publication US8772293B2, “Chemical compounds” (Pfizer Limited, priority 2010, dated 2014).

Where a name gives a salt, the structure may show the parent alone.

In the experiment the target is T1, Nav1.7 (or SCN9A) channel (Homo sapiens, UniProt Q15858).
T1 construct: expressed in transfected cells
T1 sequence (Q15858 whole entry): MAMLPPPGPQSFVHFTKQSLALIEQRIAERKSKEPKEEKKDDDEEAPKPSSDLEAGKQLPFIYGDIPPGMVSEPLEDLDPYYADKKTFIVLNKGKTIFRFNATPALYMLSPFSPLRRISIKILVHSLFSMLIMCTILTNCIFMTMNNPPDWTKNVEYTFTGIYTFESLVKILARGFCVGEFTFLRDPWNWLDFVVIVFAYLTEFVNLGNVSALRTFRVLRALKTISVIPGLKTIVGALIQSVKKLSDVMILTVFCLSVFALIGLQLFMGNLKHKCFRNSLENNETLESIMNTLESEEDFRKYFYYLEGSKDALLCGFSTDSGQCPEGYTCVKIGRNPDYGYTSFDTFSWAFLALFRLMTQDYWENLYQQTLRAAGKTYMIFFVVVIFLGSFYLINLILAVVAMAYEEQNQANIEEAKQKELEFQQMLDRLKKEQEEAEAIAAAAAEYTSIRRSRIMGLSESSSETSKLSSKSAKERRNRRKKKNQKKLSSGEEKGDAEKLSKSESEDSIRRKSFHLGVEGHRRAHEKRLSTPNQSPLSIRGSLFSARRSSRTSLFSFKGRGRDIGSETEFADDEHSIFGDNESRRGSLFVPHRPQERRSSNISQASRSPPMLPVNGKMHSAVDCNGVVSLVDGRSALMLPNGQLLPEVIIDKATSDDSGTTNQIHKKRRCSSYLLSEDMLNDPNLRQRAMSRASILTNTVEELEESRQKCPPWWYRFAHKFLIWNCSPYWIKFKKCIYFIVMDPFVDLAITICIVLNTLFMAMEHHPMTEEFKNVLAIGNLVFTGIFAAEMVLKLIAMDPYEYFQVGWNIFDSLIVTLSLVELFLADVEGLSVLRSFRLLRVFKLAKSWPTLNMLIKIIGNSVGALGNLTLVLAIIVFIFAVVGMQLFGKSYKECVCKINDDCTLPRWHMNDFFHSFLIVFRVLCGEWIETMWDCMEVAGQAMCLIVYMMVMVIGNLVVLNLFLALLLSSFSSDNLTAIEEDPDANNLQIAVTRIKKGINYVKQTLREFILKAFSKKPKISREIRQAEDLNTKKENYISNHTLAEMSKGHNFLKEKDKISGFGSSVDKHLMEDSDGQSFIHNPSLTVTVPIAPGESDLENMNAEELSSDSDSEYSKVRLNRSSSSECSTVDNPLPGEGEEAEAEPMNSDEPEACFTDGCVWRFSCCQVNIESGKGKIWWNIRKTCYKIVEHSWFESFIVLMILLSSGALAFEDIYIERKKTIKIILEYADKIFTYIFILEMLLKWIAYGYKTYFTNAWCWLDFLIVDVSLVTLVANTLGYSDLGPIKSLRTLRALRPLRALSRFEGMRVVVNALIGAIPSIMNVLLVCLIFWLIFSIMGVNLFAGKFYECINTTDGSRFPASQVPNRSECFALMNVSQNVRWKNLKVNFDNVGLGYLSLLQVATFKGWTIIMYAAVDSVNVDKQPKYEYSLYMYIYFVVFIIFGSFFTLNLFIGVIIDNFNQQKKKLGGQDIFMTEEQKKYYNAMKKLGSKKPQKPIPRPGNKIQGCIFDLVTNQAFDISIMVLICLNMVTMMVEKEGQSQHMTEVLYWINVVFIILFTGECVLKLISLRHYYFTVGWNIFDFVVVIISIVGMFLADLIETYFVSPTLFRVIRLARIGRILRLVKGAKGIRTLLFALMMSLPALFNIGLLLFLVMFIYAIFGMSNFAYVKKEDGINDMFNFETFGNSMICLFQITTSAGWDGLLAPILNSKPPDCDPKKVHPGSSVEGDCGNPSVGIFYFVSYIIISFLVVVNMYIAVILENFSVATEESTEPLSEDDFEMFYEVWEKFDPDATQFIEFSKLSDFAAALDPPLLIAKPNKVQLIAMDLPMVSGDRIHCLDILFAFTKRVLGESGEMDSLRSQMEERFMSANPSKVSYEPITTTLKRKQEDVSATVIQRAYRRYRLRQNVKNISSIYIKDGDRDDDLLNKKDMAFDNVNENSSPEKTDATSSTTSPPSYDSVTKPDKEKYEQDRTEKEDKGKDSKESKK
The experiment in a line: Nav1.7 (hSCN9A) PatchXpress electrophysiology in HEK cells. The experiment is classed as cell-based. The settings on record: PatchXpress platform; HEK cells stably expressing hSCN9A; held at V1/2 of inactivation; calculated from single point % inhibition; read-out: Nav1.7 EIC50 (estimated IC-50). The procedure: The ability of the compounds of formula (I) to block the Nav1.7 (or SCN9A) channel were measured using the assay described below.
Human Embryonic Kidney (HEK) cells were transfected with an hSCN9A construct using lipofectamine reagent (Invitrogen), using standard techniques. Cells stably expressing the hSCN9A constructs were identified by their resistance to G-418 (400 μg/ml). Clones were screened for expression using the whole-cell voltage-clamp technique.
HEK cells stably transfected with hSCN9A were maintained in DMEM medium supplemented with 10% heat-inactivated fetal bovine serum and 400 µg/ml G-418 in an incubator at 37° C. with a humidified atmosphere of 10% CO2. For HTS, cells were harvested from flasks by trypsinization and replated in an appropriate multi-well plate (typically 96 or 384 wells/plate) such that confluence would be achieved within 24 hours of plating. For electrophysiological studies, cells were removed from the culture flask by brief trypsinization and re-plated at low density onto glass cover slips. Cells were typically used for electrophysiological experiments within 24 to 72 hours after plating.
Cover slips containing HEK cells expressing hSCN9A were placed in a bath on the stage of an inverted microscope and perfused (approximately 1 ml/minutes) with extracellular solution of the following composition: 138 mM NaCl, 2 mM CaCl2, 5.4 mM KCl, 1 mM MgCl2, 10 mM glucose, and 10 mM HEPES, pH 7.4, with NaOH. […] The osmolarity of the extracellular and intracellular solutions was 300 mOsm/kg and 295 mOsm/kg, respectively. All recordings were made at room temperature (22-24° C.) using AXOPATCH 200B amplifiers and PCLAMP software (Axon Instruments, Burlingame, Calif.).
hSCN9A currents in HEK cells were measured using the whole-cell configuration of the patch-clamp technique (Hamill et al., 1981). Uncompensated series resistance was typically 2 to 5 mega ohms and >85% series resistance compensation was routinely achieved. As a result, voltage errors were negligible and no correction was applied. Current records were acquired at 20 to 50 KHz and filtered at 5 to 10 KHz.
HEK cells stably transfected with hSCN9A were viewed under Hoffman contrast optics and placed in front of an array of flow pipes emitting either control or compound-containing extracellular solutions. All compounds were dissolved in dimethyl sulfoxide to make 10 mM stock solutions, which were then diluted into extracellular solution to attain the final concentrations desired. […] The voltage-dependence of inactivation was determined by applying a series of depolarizing prepulses (8 sec long in 10 mV increments) from a negative holding potential. The voltage was then immediately stepped to 0 mV to assess the magnitude of the sodium current. Currents elicited at 0 mV were plotted as a function of prepulse potential to allow estimation of the voltage at which 50% of the channels were inactivated (midpoint of inactivation or V1/2). Compounds were tested for their ability to inhibit hSCN9A sodium channels by activating the channel with a 20 msec voltage step to 0 mV following an 8 second conditioning prepulse to the empirically determined V1/2. Compound effect (% inhibition) was determined by difference in current amplitude before and after application of test compounds. For ease of comparison, “estimated IC-50” (EIC50) values were calculated from single point electrophysiology data by the following equation, (tested concentration, uM)×(100-% inhibition/% inhibition). Inhibition values <20% and >80% were excluded from the calculation.
Electrophysiological assays were conducted with PatchXpress 7000 hardware and associated software (Molecular Devices Corp). All assay buffers and solutions were identical to those used in conventional whole-cell voltage clamp experiments described above. hSCN9A cells were grown as above to 50%-80% confluency and harvested by trypsinization. […]
On to `N#Cc1cc(S(=O)(=O)Nc2ncns2)ccc1Oc1ccc(-c2cccc(C(F)(F)F)c2)cc1-c1ccnnc1` [Example 1, 3-Cyano-4-{[3-pyridazin-4-yl-3′-(trifluoromethyl)biphenyl-4-yl]oxy}-N-1,2,4-thiadiazol-5-ylbenzenesulfonamide], for which the IC50 is 1.8 nM.

Take `O=S(=O)(Nc1ncccn1)c1cc(Cl)c(Oc2ccc(-c3ccc(C(F)(F)F)cc3)cc2-c2ccnnc2)cc1F` [Example 2, 5-Chloro-2-fluoro-4-{[3-pyridazin-4-yl-4′-(trifluoromethyl)biphenyl-4-yl]oxy}-N-pyrimidin-2-ylbenzenesulfonamide]: the IC50 is 8.1 nM.

For `O=S(=O)(Nc1cccnn1)c1ccc(Oc2ccc(-c3ccc(C(F)(F)F)cc3)cc2-c2ccnnc2)c(Cl)c1` [Example 3, 3-Chloro-N-pyridazin-3-yl-4-{[3-pyridazin-4-yl-4′-(trifluoromethyl)biphenyl-4-yl]oxy}benzenesulfonamide], the IC50 was 31 nM.

On to `O=S(=O)(Nc1nncs1)c1cc(Cl)c(Oc2ccc(-c3ccccc3C(F)(F)F)cc2-c2ccnnc2)cc1F` [Example 4, 5-Chloro-2-fluoro-4-{[3-pyridazin-4-yl-2′-(trifluoromethyl)biphenyl-4-yl]oxy}-N-1,3,4-thiadiazol-2-ylbenzenesulfonamide], for which the IC50 was 2.9 nM.

For the compound `O=S(=O)(Nc1nncs1)c1cc(Cl)c(Oc2ccc(-c3cccc(C(F)(F)F)c3)cc2-c2ccnnc2)cc1F` [Example 5], the IC50 is 1.3 nM.

Take `O=S(=O)(Nc1nncs1)c1cc(Cl)c(Oc2ccc(-c3ccc(C(F)(F)F)cc3)cc2-c2ccnnc2)cc1F` [Example 6, 5-Chloro-2-fluoro-4-{[3-pyridazin-4-yl-4′-(trifluoromethyl)biphenyl-4-yl]oxy}-N-1,3,4-thiadiazol-2-ylbenzenesulfonamide]: the IC50 is 2.9 nM.

In the case of `N#Cc1cc(S(=O)(=O)Nc2ncns2)ccc1Oc1ccc(-c2ccc(C(F)(F)F)cc2)cc1-c1ccnnc1` [Example 7, 3-Cyano-4-{[3-pyridazin-4-yl-4′-(trifluoromethyl)biphenyl-4-yl]oxy}-N-1,2,4-thiadiazol-5-ylbenzenesulfonamide], the IC50 is 1.2 nM.

As to `Cn1nccc1-c1cc(-c2ccccc2)ccc1Oc1ccc(S(=O)(=O)Nc2nccs2)cc1F` [Example 8, 3-Fluoro-4-{[3-(1-methyl-1H-pyrazol-5-yl)biphenyl-4-yl]oxy}-N-1,3-thiazol-2-ylbenzenesulfonamide], the IC50 was 32 nM.

As for `O=S(=O)(Nc1nncs1)c1ccc(Oc2ccc(-c3ccccc3)cc2-c2ccnnc2)c(Cl)c1` [Example 9, 3-Chloro-4-[(3-pyridazin-4-ylbiphenyl-4-yl)oxy]-N-1,3,4-thiadiazol-2-ylbenzenesulfonamide], the IC50 is 11.6 nM.

`N#Cc1cc(S(=O)(=O)Nc2nncs2)ccc1Oc1ccc(-c2ccccc2)cc1-c1ccnnc1` [Example 10, 3-Cyano-4-[(3-Pyridazin-4-ylbiphenyl-4-yl)oxy]-N-1,3,4-thiadiazol-2-ylbenzenesulfonamide]: the IC50 was 53 nM.

As for `O=S(=O)(Nc1nncs1)c1cc(Cl)c(Oc2ccc(-c3ccccc3)cc2-c2ccnnc2)cc1F` [Example 11, 5-Chloro-2-fluoro-4-[(3-pyridazin-4-ylbiphenyl-4-yl)oxy]-N-1,3,4-thiadiazol-2-ylbenzenesulfonamide], the IC50 was 7.7 nM.

With `N#Cc1cc(S(=O)(=O)Nc2ncns2)ccc1Oc1ccc(-c2ccccc2)cc1-c1ccnnc1` [Example 12, 3-Cyano-4-[(3-pyridazin-4-ylbiphenyl-4-yl)oxy]-N-1,2,4-thiadiazol-5-ylbenzenesulfonamide], the IC50 was 1.9 nM.

For `CN1CC(n2nccc2-c2cc(-c3ccccc3C(F)(F)F)ccc2Oc2cc(F)c(S(=O)(=O)Nc3nncs3)cc2Cl)C1` [Example 13, 5-Chloro-2-fluoro-4-({3-[1-(1-methylazetidin-3-yl)-1H-pyrazol-5-yl]-2′-(trifluoromethyl)biphenyl-4-yl}oxy)-N-1,3,4-thiadiazol-2-ylbenzenesulfonamide], the IC50 is 2.2 nM.

As for `CN1CC(n2nccc2-c2cc(-c3ccc(C(F)(F)F)cc3)ccc2Oc2cc(F)c(S(=O)(=O)Nc3nncs3)cc2Cl)C1` [Example 14, 5-Chloro-2-fluoro-4-({3-[1-(1-methylazetidin-3-yl)-1H-pyrazol-5-yl]-4′-(trifluoromethyl)biphenyl-4-yl}oxy)-N-1,3,4-thiadiazol-2-ylbenzenesulfonamide], the IC50 was 1.1 nM.

For `Cn1nccc1-c1cc(-c2ccccc2)ccc1Oc1ccc(S(=O)(=O)Nc2ncc(F)s2)cc1C#N` [Example 15, 3-Cyano-N-(5-fluoro-1,3-thiazol-2-yl)-4-{[3-(1-methyl-1H-pyrazol-5-yl)biphenyl-4-yl]oxy}benzenesulfonamide], the IC50 was 6 nM.

Regarding `Cn1nccc1-c1cc(-c2ccccc2)ccc1Oc1ccc(S(=O)(=O)Nc2ncns2)cc1C#N` [Example 16, 3-Cyano-4-{[3-(1-methyl-1H-pyrazol-5-yl)biphenyl-4-yl]oxy}-N-1,2,4-thiadiazol-5-ylbenzenesulfonamide], the IC50 was 1.5 nM.

Take `N#Cc1cc(S(=O)(=O)Nc2ncns2)ccc1Oc1ccc(-c2ccccc2C(F)(F)F)cc1-c1ccnnc1` [Example 17, 3-Cyano-4-{[3-pyridazin-4-yl-2′-(trifluoromethyl)biphenyl-4-yl]oxy}-N-1,2,4-thiadiazol-5-ylbenzenesulfonamide]: the IC50 is 2.7 nM.

For the compound `COc1cccc(-c2ccc(Oc3ccc(S(=O)(=O)Nc4nccs4)cc3C#N)c(-c3ccnn3C)c2)c1` [Example 18, 3-Cyano-4-{[3′-methoxy-3-(1-methyl-1H-pyrazol-5-yl)biphenyl-4-yl]oxy}-N-(1,3-thiazol-2-yl)benzenesulfonamide], the IC50 was 18 nM.

In the case of `COc1ccccc1-c1ccc(Oc2ccc(S(=O)(=O)Nc3nccs3)cc2C#N)c(-c2ccnn2C)c1` [Example 19, 3-Cyano-4-{[2′-methoxy-3-(1-methyl-1H-pyrazol-5-yl)biphenyl-4-yl]oxy}-N-(1,3-thiazol-2-yl)benzenesulfonamide], the IC50 is 11 nM.

`Cn1nccc1-c1cc(-c2ccccc2)ccc1Oc1ccc(S(=O)(=O)Nc2ccc(F)cn2)cc1C#N` [Example 20, 3-Cyano-N-(5-fluoropyridin-2-yl)-4-{[3-(1-methyl-1H-pyrazol-5-yl)biphenyl-4-yl]oxy}benzenesulfonamide]: the IC50 was 240 nM.

Take `Cn1nccc1-c1cc(-c2cccc(CN)c2)ccc1Oc1ccc(S(=O)(=O)Nc2nccs2)cc1C#N` [Example 21, 4-{[3′-(Aminomethyl)-3-(1-methyl-1H-pyrazol-5-yl)biphenyl-4-yl]oxy}-3-cyano-N-(1,3-thiazol-2-yl)benzenesulfonamide, hydrochloride salt]: the IC50 is 100 nM.

As to `Cn1nccc1-c1cc(-c2ccccc2)ccc1Oc1cc(F)c(S(=O)(=O)Nc2ccc(F)cn2)cc1Cl` [Example 22, 5-Chloro-2-fluoro-N-(5-fluoropyridin-2-yl)-4-{[3-(1-methyl-1H-pyrazol-5-yl)biphenyl-4-yl]oxy}benzenesulfonamide], the IC50 was 33 nM.

In the case of `CNCc1ccccc1-c1ccc(Oc2ccc(S(=O)(=O)Nc3nccs3)cc2C#N)c(-c2ccnn2C)c1` [Example 23, 3-Cyano-4-({2′-[(methylamino)methyl]-3-(1-methyl-1H-pyrazol-5-yl)biphenyl-4-yl}oxy)-N-(1,3-thiazol-2-yl)benzenesulfonamide, trifluoroacetate salt], the IC50 was 5.1 nM.

On to `O=S(=O)(Nc1nncs1)c1cc(Cl)c(Oc2cc(Cl)c(-c3ccc(F)cc3)cc2-c2ccnnc2)cc1F` [Example 24, 5-Chloro-4-{[2-chloro-4′-fluoro-5-(pyridazin-4-yl)biphenyl-4-yl]oxy}-2-fluoro-N-(1,3,4-thiadiazol-2-yl)benzenesulfonamide], for which the IC50 was 1.7 nM.
